In patent publication US20220095615A1, “NEMATODE DETERRENT COMPOSITIONS” (SALK INSTITUTE FOR BIOLOGICAL STUDIES, priority 2018, published 2022):
Structures can show the parent of a compound that is named as a salt.

Columns and labels:
C. elegans [1] = experiment: Single animal avoidance assay (avoidance index); format: in vivo, Caenorhabditis elegans; conditions: for activity of synthetic sulfolipids in the avoidance assay: synthetic compounds, FIG. 10a
Experimental: Adult C. elegans were exposed to a small volume of a test compound (0.05 μl) near the head of the animal. Upon sensing a repellent, animals initiate a reversal followed by an omega bend. Positive responses to a test compound were scored only if they occurred within 4 s. Results are shown as the avoidance index, which is the ratio of number of positive responses to the total number of trials. Each animal is tested thrice and data is presented as average of the animals tested on at least 3 days (FIGS. 1-4 and FIGS. 8-13). For Data in FIG. 18b, animals were pre-treated with various drugs at 100 μM for 30 min and then their responses to predator cue were analyzed. Each assay was performed in triplicate (5 animals per condition) and on at least 3 different days […]. For Data shown in FIG. 4, animals were pre-treated with 1 mM Sertraline (Sigma) or M9 control for 3 min before being tested for their responses in the avoidance assay. We also performed additional controls to test whether an animal's response to the three repellent trials were independent.
Two-tailed unpaired t-tests were used to compare different strains, genotypes, and conditions, and the Bonferroni correction was used to adjust for multiple comparisons. Avoidance indices of all strains tested and controls are shown in Supplementary Table S7 of Liu et al., Nature Communications 9: 1128 (2018)).
Adult nematodes were exposed to a small volume of a test compound (0.05 μl) near the head of the animal. Upon sensing a repellent, animals initiate a reversal followed by an omega bend. Positive responses to a test compound were scored only if they occurred within 4 s. Results are shown as the avoidance index, which is the ratio of number of positive responses to the total number of trials. Each animal is tested thrice and data is presented as average of the animals tested on at least 3 days.

C. elegans [2] = experiment: Egg-laying assay; format: in vivo, Caenorhabditis elegans; conditions: predator cue with sertraline (1 mM) for 30 min, egg-laying monitored 60 min after removal, FIG. 4f
Experimental: Synchronized Day 1 adults were treated with M9 control buffer or concentrated predator cue for 30 min. These animals were transferred to a 2-day lawn of 100 μl OP50 bacteria (OD600=0.5) and allowed to lay eggs. Eggs were counted at the time intervals shown. In each condition and genotype, at least 35 animals were analyzed. Average number of eggs and s.e.m. are presented with two-tailed unpaired t-tests with Bonferroni correction for statistical analysis. To test the effect of sulfolipids on egg-laying behavior, these compounds were dissolved in DMSO and further diluted in M9 to obtain the concentrations indicated. Sertraline effects were analyzed by exposing animals to predator cue with or without sertraline (1 mM) for 30 min.

C. elegans [3] = experiment: Chemotaxis assay for volatile components; format: in vivo, Caenorhabditis elegans; conditions: Benzaldehyde 1:200, 2-nonanone undiluted, 60 min, FIG. 8D
Experimental: Chemotaxis assays were performed on 2% agar square (10 cm) plates containing 5 mM potassium phosphate (pH 6), 1 mM CaCl2, and 1 mM MgSO4. Animals were washed three times in M9 and once in chemotaxis buffer (5 mM potassium phosphate (pH 6), 1 mM CaCl2, and 1 mM MgSO4) and then placed in the middle of the plate (FIG. 8c). Two spots of the collected nematode secretions and two control M9 spots (all 1 μl) were added to opposite sides of the plate, generating gradients of any volatile components in the nematode secretions. Animals were allowed to explore these gradients for 1 h, after which they were counted and the chemotaxis index calculated (FIG. 8d). Benzaldehyde (1:200) and 2-nonanone (undiluted) were used as control attractants and repellents, respectively^25. Nine or more assays were performed on at least three different days. Two-tailed unpaired t-tests were used to compare C. elegans responses to different secretions, and the Bonferroni correction was used to adjust for multiple comparisons.

C. elegans [4] = conditions: literature reference; cited from earlier work

With CC(C)CCC(CCCCCCCCCO)OS(=O)(=O)O (stereo not drawn) [sufal #1, 14-hydroxy-2-methyltetradecan-5-yl Hydrogen Sulfate] the “activity of synthetic sulfolipids in the avoidance assay” value (C. elegans [1]) was “accounted for most of the isolated activity”.
For CN[C@H]1CC[C@@H](c2ccc(Cl)c(Cl)c2)c2ccccc21 [sertraline], the “sertraline effect on predator cue-induced egg-laying response” value (C. elegans [2]) was “reduced the longer-lasting egg-laying response”, the “duration of the drug effects (decay of the sertraline effect)” value (C. elegans [1]; predator cue, FIG. 13C legend) was “about 30 minutes” and the “concentration dependence of suppression of avoidance behavior” value (C. elegans [1]; predator cue, FIG. 13b) was “dependent on drug concentration”. For the same compound, the “duration of suppression of avoidance after the drug was removed” value (C. elegans [1]; predator cue, FIG. 13c) was “at least 30 min”, the “sertraline modulation of avoidance in eat-4 mutants” value (C. elegans [1]; predator cue, eat-4 (vesicular glutamate transporter) mutants, FIG. 4c) was “significant sertraline-induced modulation of avoidance behavior” and the “sertraline effect on behavior of tax-4 or ocr-2 mutants” value (C. elegans [1]; predator cue, tax-4 or ocr-2 mutants, FIG. 4b) was “no detectable effect”. The “sertraline attenuation in unc-25 mutants” value (C. elegans [1]; predator cue, unc-25 (glutamic acid decarboxylase) mutants, FIG. 4c) was “defective in sertraline attenuation”, the “sertraline effect on avoidance to predator cue” value (C. elegans [1]; wild-type, pre-treated with sertraline (1 mM), FIG. 4a) was “attenuated avoidance” and the “sertraline effect on avoidance responses to fructose” value (C. elegans [1]; wild-type, pre-treated with sertraline, FIG. 4a) was “attenuated avoidance responses”. The “sertraline effect on avoidance to purified sulfolipids” value (C. elegans [1]; wild-type, pre-treated with sertraline, FIG. 13a) was “attenuated avoidance”.
In the case of CCCCCCCC(C)=O [Sulfolipid 2-nonanone, 2-nonanone], the “chemotaxis response to control attractant and repellent” value (C. elegans [3]) was “strong responses”.
In the case of CCCCCCCCCCCCOS(=O)(=O)[O-].[Na+] [SDS, sodium dodecyl sulfate], the “C. elegans avoidance cue potency” value (C. elegans [4]) is given as “potent”.
In the case of CC(C)CCCC(CCCCCCCCO)OS(=O)(=O)O (stereo not drawn) [sufal #2, 14-hydroxy-2-methyltetradecan-6-yl Hydrogen Sulfate], the “activity of synthetic sulfolipids in the avoidance assay” value (C. elegans [1]) was “accounted for most of the isolated activity”.
In the case of O=Cc1ccccc1 [Benzaldehyde], the “chemotaxis response to control attractant and repellent” value (C. elegans [3]) was “strong responses”.
